In patent US10280179B2, “Spiroquinoxaline derivatives as inhibitors of non-apoptotic regulated cell-death” (Helmholtz Zentrum Munchen—Deutches Forschungszentrum Fur …, priority 2013, dated 2019):
Read-outs that look alike come from different tables or passages of the source.

Key:
C57BL/6 mice = test: Kidney ischemia-reperfusion injury animal model (Example C.2); assay type: in vivo, mouse; settings: kidney IRI, compared to vehicle control, FIG. 3
Procedure: FIG. 3: Efficacy of a compound of the invention in an animal model of kidney IRI.
Briefly, to test such utility of compounds disclosed herein, ischemia is induced in the kidney of 6-8 week old C57BL/6 mice by interruption of the blood supply to the kidney via reversible clipping of the Arteria renalis for 30 min, followed by reperfusion for a period of 24 h. Mice are treated with compound (or vehicle control) generally as described in Example C.1 at 1 hour prior to and four hours after abdominal closure and once daily over a period of 14 days. Markers to be investigated for IRI of kidney include reduction of creatinine levels in the serum along with histopathological analysis.

[1] = system: human neuroblastoma cell line SH-SY5Y; test: Inhibition of BSO-induced non-apoptotic cell death (Example B.1); assay type: cell-based; settings: SH-SY5Y cells, 72 hours
Method in brief: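 SH-SY5Y cells exposed to 50 μM BSO together with compound (0.5 pM–100 μM, triplicate) for 72 h at 37°C, 5% CO2. Survival measured by AquaBluer fluorescence (ex 530–560/em 590 nm), normalised to percent surviving cells, and IC50 derived.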

SH-SY5Y cells = test: TNF-alpha-induced apoptosis, specificity for non-apoptotic cell death (Example B.3); assay type: cell-based, human; settings: compound 1 μM, TNF-alpha 10 ng/mL, FIG. 1
Procedure: SH-SY5Y cells were propagated and seeded in 96-well plates, together with compound N-1, N-2, N-10 of Table 1-N (FIG. 1(a)), compound O/S-6 or O/S-3 of Table 1-O/S (FIG. 1(b)), or compound C-12, C-91, or C-205 of Table 1-C (FIG. 1(c)) (each 1 μM) and TNF-alpha was added (final concentration: 10 ng/mL) to induce apoptosis. The apoptosis and pan-caspase inhibitor z-vad (final concentration: 50 μM) and the necroptosis inhibitor Necrostatin-1 (Nec-1; final concentration: 5 μM) were used for comparison. Control wells were established with vehicle only (DMSO), with and without treatment with TNF-alpha to induce apoptosis. Cells were incubated, and cell survival was detected and quantified. Percentage cell survival after TNF-alpha-induced apoptosis is shown (error bars indicate standard deviation (SD)).
Briefly, SH-SY5Y cells were propagated and seeded in 96-well plates, together with the compound to be tested (1 μM), generally as described in Example B.1, except they were seeded at 1,000 cell/well and instead of BSO, TNF-alpha (Invitrogen) was added to a final concentration of 10 ng/mL to induce apoptosis. The apoptosis and pan-caspase inhibitor Z-VAD-fmk (Enzo Life Science; final concentration 50 μM) and the necroptosis inhibitor Necrostatin-1 (Nec-1; Enzo Life Science; final concentration 5 μM) were used for comparison. Control wells were established with vehicle only (DMSO), with and without treatment with TNF-alpha to induce apoptosis. Cells were incubated, and cell survival was detected and quantified as described in Example B.1.

Compound: Clc1cccc(CNC2=Nc3ccccc3NC23CCNCC3)c1 [N-2]
- survival of mice suffering kidney-ischemic reperfusion injury (C57BL/6 mice; dose 1 mg/kg): Improved survival
- survival of mice suffering kidney-ischemic reperfusion injury (C57BL/6 mice; dose 10 mg/kg): Improved survival
- IC50 ([1]; 50 μM BSO, read-out: SH-SY5Y/BSO IC50): < 20 nM
- IC50 ([1]; BSO 50 μM, cell survival (AquaBluer), read-out: SH-SY5Y/BSO (Example B.1) IC50): 2.81 nM
- Percentage cell survival after TNF-alpha-induced apoptosis (SH-SY5Y cells): Non-inhibition of apoptotic cell-death
